{"source": "patent US20250120967A1", "about": "“TYROSINE KINASES INHIBITORS AND USES THEREOF” (GREAT NOVEL THERAPEUTICS BIOTECH & MEDICALS CORPORATION, priority 2023, published 2025)", "assay_in_all_cases": "Tyrosine kinase inhibition assay", "assay_type_in_all_cases": "biochemical", "settings_in_all_cases": "single concentration 1.0 μM, read-out: percent inhibition", "key": {"JAK3": {"molecular_target": "T1, JAK3 (Homo sapiens, UniProt P52333)", "T1 sequence (P52333 1-1124)": "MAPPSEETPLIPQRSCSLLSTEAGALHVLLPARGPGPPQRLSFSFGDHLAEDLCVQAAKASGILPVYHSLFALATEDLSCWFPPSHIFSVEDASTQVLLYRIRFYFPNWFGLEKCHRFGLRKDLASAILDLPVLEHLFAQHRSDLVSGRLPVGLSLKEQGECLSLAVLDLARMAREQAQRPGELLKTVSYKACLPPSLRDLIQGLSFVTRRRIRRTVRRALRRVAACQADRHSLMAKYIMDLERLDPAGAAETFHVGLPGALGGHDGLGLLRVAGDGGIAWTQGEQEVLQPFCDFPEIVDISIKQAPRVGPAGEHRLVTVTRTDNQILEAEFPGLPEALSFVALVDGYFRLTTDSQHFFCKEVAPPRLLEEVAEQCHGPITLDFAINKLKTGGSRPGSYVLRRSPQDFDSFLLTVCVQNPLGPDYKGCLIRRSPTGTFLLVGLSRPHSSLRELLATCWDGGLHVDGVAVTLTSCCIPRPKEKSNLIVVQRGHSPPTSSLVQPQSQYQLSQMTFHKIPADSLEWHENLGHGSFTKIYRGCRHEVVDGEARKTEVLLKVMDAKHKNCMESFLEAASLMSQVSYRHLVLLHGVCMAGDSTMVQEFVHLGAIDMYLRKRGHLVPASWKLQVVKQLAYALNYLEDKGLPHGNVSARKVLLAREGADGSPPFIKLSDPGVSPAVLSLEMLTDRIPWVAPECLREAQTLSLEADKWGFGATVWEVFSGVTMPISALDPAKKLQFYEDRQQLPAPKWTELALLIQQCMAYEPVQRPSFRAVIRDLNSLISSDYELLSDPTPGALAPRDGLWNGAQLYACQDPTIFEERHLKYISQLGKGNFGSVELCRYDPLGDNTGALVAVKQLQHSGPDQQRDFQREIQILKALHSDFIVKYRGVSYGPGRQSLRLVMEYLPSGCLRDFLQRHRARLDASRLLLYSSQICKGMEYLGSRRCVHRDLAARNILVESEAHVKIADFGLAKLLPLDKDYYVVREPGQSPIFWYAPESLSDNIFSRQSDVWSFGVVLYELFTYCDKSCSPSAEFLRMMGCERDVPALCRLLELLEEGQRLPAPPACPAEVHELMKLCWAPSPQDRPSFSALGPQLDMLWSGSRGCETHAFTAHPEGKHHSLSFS", "in_short": "(§1)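 Kinase activity was measured by Z′-LYTE peptide assay with ATP at the apparent Km, in kinase buffer (50 mM HEPES pH 7.5, 0.01% BRIJ-35, 10 mM MgCl2, 1 mM EGTA) with 1% DMSO final. Compounds were tested at a single 1.0 μM concentration and reported as percent inhibition; >80% counted as a hit.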"}, "MAPK10 (JNK3)": {"molecular_target": "MAPK10 (JNK3) (Homo sapiens, UniProt P53779)", "sequence (P53779 whole entry)": "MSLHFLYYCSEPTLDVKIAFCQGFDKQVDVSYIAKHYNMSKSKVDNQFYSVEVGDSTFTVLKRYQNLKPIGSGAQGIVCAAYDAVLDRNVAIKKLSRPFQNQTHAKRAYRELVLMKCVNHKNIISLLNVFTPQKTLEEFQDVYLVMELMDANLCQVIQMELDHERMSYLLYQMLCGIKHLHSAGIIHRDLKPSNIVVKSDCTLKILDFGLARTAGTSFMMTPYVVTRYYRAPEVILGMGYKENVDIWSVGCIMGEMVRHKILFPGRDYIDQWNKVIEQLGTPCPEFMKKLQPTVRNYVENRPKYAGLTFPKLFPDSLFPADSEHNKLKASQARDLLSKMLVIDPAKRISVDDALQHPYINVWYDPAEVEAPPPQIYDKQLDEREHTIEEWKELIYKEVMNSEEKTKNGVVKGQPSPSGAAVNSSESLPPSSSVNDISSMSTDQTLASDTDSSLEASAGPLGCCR", "in_short": "as §1"}, "PIK3CG (p110 gamma)": {"molecular_target": "PIK3CG (p110 gamma) (Homo sapiens, UniProt P48736)", "sequence (P48736 whole entry)": "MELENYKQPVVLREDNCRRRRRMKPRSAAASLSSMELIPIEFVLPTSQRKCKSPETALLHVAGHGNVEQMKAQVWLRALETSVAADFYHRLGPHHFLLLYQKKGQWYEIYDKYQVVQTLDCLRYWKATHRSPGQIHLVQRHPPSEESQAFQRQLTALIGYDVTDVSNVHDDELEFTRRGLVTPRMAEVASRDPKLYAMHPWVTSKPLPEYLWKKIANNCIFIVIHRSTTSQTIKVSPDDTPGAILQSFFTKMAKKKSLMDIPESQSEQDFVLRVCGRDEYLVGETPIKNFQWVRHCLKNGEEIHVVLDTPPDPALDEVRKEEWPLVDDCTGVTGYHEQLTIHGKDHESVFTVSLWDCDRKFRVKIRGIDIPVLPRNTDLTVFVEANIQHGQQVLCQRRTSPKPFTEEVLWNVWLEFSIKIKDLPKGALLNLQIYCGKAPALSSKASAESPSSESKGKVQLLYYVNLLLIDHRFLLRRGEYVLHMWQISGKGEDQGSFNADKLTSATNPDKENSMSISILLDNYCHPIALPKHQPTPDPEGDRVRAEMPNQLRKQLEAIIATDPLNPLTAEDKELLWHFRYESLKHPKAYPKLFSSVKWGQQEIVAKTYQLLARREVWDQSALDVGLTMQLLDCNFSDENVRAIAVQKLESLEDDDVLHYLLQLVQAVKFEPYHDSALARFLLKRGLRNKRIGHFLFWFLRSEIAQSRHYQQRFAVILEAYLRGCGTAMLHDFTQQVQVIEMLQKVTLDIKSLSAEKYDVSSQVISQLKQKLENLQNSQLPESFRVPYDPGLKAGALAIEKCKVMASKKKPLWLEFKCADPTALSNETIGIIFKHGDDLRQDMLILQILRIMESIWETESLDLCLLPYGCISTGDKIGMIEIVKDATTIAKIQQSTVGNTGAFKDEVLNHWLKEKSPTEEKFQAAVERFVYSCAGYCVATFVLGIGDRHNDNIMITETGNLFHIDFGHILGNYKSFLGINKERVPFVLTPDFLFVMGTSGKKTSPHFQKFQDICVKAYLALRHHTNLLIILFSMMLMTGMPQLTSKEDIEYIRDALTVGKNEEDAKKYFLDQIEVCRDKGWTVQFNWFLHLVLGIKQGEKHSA", "in_short": "as §1"}, "SRMS (Srm)": {"molecular_target": "SRMS (Srm) (Homo sapiens, UniProt Q9H3Y6)", "sequence (Q9H3Y6 whole entry)": "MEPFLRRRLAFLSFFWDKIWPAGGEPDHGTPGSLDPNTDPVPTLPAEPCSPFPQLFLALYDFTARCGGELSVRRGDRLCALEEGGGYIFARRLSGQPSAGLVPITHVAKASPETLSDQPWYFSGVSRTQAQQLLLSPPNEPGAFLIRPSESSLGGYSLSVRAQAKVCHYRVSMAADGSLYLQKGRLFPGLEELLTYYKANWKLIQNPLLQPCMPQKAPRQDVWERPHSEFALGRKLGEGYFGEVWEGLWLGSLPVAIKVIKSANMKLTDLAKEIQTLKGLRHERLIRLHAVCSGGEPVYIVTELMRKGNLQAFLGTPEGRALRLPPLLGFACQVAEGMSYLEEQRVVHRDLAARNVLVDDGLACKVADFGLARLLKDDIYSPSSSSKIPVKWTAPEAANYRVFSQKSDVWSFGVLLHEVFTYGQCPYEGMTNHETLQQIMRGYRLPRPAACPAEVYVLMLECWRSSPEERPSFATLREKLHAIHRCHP", "in_short": "as §1"}, "FGFR2": {"molecular_target": "FGFR2 (Homo sapiens, UniProt P21802)", "sequence (P21802 22-821)": "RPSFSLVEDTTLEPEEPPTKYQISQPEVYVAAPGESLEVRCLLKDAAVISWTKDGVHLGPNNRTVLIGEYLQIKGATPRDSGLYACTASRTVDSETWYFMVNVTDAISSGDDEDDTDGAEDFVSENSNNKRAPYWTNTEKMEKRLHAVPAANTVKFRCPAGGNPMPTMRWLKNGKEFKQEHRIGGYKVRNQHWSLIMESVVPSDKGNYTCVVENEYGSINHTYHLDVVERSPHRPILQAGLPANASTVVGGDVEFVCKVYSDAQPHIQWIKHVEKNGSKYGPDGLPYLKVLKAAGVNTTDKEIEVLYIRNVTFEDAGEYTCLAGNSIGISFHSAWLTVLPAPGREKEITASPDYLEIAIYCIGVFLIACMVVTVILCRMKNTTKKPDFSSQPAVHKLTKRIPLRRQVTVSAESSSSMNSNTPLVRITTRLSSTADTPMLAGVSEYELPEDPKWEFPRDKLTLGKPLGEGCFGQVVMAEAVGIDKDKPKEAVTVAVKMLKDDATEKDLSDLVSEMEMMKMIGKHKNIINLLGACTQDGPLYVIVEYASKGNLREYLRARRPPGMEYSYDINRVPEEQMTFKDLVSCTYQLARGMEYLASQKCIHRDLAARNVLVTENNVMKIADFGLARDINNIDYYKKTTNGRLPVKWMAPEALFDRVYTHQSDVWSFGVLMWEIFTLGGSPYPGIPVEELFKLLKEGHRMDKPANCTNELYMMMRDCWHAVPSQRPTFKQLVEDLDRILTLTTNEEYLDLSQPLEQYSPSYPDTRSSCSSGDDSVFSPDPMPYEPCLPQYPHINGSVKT", "in_short": "as §1"}, "BMX": {"molecular_target": "T2, BMX (Homo sapiens, UniProt P51813)", "T2 sequence (P51813 1-675)": "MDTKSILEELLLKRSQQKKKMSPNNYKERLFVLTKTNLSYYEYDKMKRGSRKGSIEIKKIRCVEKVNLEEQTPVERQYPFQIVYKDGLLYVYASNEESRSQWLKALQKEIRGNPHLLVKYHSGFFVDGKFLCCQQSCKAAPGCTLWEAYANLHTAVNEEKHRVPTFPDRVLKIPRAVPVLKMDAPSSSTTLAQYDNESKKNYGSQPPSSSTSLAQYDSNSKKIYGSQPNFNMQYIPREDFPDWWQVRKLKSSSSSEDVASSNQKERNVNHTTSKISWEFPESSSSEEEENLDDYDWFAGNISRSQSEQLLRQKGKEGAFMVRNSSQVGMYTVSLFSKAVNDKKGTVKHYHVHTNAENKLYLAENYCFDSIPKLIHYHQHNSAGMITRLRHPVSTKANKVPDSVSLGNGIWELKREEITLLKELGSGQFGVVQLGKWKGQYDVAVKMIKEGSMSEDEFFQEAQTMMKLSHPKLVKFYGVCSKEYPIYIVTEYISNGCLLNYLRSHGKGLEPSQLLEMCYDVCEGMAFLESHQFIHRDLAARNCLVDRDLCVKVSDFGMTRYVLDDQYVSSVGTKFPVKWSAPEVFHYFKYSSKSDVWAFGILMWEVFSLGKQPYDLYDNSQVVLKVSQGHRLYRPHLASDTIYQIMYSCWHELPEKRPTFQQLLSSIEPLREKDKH", "in_short": "as §1"}, "AURKA (Aurora A)": {"molecular_target": "T3, AURKA (Aurora A) (Homo sapiens, UniProt O14965)", "T3 sequence (O14965 1-403)": "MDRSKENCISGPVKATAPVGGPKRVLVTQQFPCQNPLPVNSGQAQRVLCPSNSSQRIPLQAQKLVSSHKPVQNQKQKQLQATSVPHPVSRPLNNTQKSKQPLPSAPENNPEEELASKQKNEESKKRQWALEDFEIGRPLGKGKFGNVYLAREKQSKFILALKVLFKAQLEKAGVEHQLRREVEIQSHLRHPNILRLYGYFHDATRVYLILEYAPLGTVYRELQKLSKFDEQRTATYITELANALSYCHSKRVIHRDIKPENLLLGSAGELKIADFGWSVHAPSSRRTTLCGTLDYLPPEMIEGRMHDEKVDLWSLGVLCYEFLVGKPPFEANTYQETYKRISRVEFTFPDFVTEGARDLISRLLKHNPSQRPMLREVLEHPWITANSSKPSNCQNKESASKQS", "in_short": "as §1"}}, "data": [{"smiles": "COc1cc2nccc(Oc3ccc(NC(=O)C4(C(=O)Nc5ccc(F)cc5)CC4)cc3)c2cc1OC", "note": "[Cabozantinib, reference compound]", "values": [{"measurement": "inhibition at 1 µM", "setting": "JAK3", "result": 9, "unit": "%"}, {"measurement": "inhibition at 1 µM", "setting": "MAPK10 (JNK3)", "result": 3, "unit": "%"}, {"measurement": "inhibition at 1 µM", "setting": "PIK3CG (p110 gamma)", "result": 14, "unit": "%"}, {"measurement": "inhibition at 1 µM", "setting": "SRMS (Srm)", "result": 96, "unit": "%"}, {"measurement": "inhibition at 1 µM", "setting": "FGFR2", "result": 16, "unit": "%"}, {"measurement": "inhibition at 1 µM", "setting": "BMX", "result": 36, "unit": "%"}, {"measurement": "inhibition at 1 µM", "setting": "AURKA (Aurora A)", "result": 55, "unit": "%"}]}, {"smiles": "COc1cc2nccc(Oc3ccc(NC(=O)C4(NC(=O)c5ccc(F)cc5)CC4)cc3F)c2cc1OC", "note": "[Cbo-02, N-(1-((4-((6,7-diMethoxyquinolin-4-yl)oxy)-3-fluorophenyl)carbamoyl)cyclopropyl)-4-fluorobenzamide]", "values": [{"measurement": "inhibition at 1 µM", "setting": "JAK3", "result": 11, "unit": "%"}, {"measurement": "inhibition at 1 µM", "setting": "MAPK10 (JNK3)", "result": 4, "unit": "%"}, {"measurement": "inhibition at 1 µM", "setting": "PIK3CG (p110 gamma)", "result": 4, "unit": "%"}, {"measurement": "inhibition at 1 µM", "setting": "SRMS (Srm)", "result": 12, "unit": "%"}, {"measurement": "inhibition at 1 µM", "setting": "FGFR2", "result": 22, "unit": "%"}, {"measurement": "inhibition at 1 µM", "setting": "BMX", "result": 22, "unit": "%"}, {"measurement": "inhibition at 1 µM", "setting": "AURKA (Aurora A)", "result": 75, "unit": "%"}]}, {"smiles": "COc1cc2nccc(Oc3ccc(NC(=O)C4(NC(=O)c5ccc(F)cc5)CC4)cc3F)c2cc1Oc1ccc(N)cc1F", "note": "[Cbo-10]", "values": [{"measurement": "inhibition at 1 µM", "setting": "JAK3", "result": 9, "unit": "%"}, {"measurement": "inhibition at 1 µM", "setting": "MAPK10 (JNK3)", "result": 8, "unit": "%"}, {"measurement": "inhibition at 1 µM", "setting": "PIK3CG (p110 gamma)", "result": 9, "unit": "%"}, {"measurement": "inhibition at 1 µM", "setting": "SRMS (Srm)", "result": 74, "unit": "%"}, {"measurement": "inhibition at 1 µM", "setting": "FGFR2", "result": 29, "unit": "%"}, {"measurement": "inhibition at 1 µM", "setting": "BMX", "result": 33, "unit": "%"}, {"measurement": "inhibition at 1 µM", "setting": "AURKA (Aurora A)", "result": 92, "unit": "%"}]}, {"smiles": "COc1cc2nccc(Oc3ccc(NC(=O)C4(NC(=O)c5ccc(F)cc5)CC4)cc3F)c2cc1Oc1c(F)cc(N)cc1F", "note": "[Cbo-14]", "values": [{"measurement": "inhibition at 1 µM", "setting": "JAK3", "result": 21, "unit": "%"}, {"measurement": "inhibition at 1 µM", "setting": "MAPK10 (JNK3)", "result": 4, "unit": "%"}, {"measurement": "inhibition at 1 µM", "setting": "PIK3CG (p110 gamma)", "result": 6, "unit": "%"}, {"measurement": "inhibition at 1 µM", "setting": "SRMS (Srm)", "result": 84, "unit": "%"}, {"measurement": "inhibition at 1 µM", "setting": "FGFR2", "result": 37, "unit": "%"}, {"measurement": "inhibition at 1 µM", "setting": "BMX", "result": 42, "unit": "%"}, {"measurement": "inhibition at 1 µM", "setting": "AURKA (Aurora A)", "result": 89, "unit": "%"}]}, {"smiles": "COc1cc2nccc(Oc3ccc(NC(=O)C4(C(=O)Nc5ccc(F)cc5)CC4)cc3F)c2cc1Oc1ccc(N)cc1F", "note": "[Cbo-23]", "values": [{"measurement": "inhibition at 1 µM", "setting": "JAK3", "result": 17, "unit": "%"}, {"measurement": "inhibition at 1 µM", "setting": "MAPK10 (JNK3)", "result": -3, "unit": "%"}, {"measurement": "inhibition at 1 µM", "setting": "PIK3CG (p110 gamma)", "result": -7, "unit": "%"}, {"measurement": "inhibition at 1 µM", "setting": "SRMS (Srm)", "result": 99, "unit": "%"}, {"measurement": "inhibition at 1 µM", "setting": "FGFR2", "result": 5, "unit": "%"}, {"measurement": "inhibition at 1 µM", "setting": "BMX", "result": 42, "unit": "%"}, {"measurement": "inhibition at 1 µM", "setting": "AURKA (Aurora A)", "result": 55, "unit": "%"}]}]}
